Where two headings read alike, the source gives them in different places.
Experiments:
Type in all cases: in vivo
[1] = test system: Tetranychus cinnabarinus Nymphs; assay: Activity assay of Tetranychus cinnabarinus nymphs (spray on broad bean leaves)
Method in brief: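 Mortality, judged as no response to gentle touch, was scored 48 h after spraying Tetranychus cinnabarinus nymphs on broad bean leaves (eggs from females removed after 24 h). Test solutions: DMF-dissolved compound, ≤10% DMF, in 1‰ Tween 80; 26±2° C., 70%–80% RH, 16 h light; triplicate, blank control.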

[2] = test system: adult Tetranychus cinnabarinus; assay: Activity assay of adult Tetranychus cinnabarinus (whole-plant spray on bean seedlings); conditions: 48 h, read-out: adult mite-killing activity
Method in brief: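 Whole plants sprayed after adult mite inoculation and initial census, using compound dissolved in DMF and made up with 1‰ Tween 80 water (DMF not above 10%). Mortality derived from survivor counts at 48 h after treatment. Each treatment run in triplicate.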

[3] = test system: Eggs of Tetranychus Cinnabarinus; assay: Activity assay of eggs of Tetranychus cinnabarinus (spray method, ovicidal); conditions: Tetranychus cinnabarinus, read-out: ovicidal activity
Method in brief: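 Ovicidal spray test: compound dissolved in DMF, diluted with 1‰ Tween 80 (DMF ≤10%), sprayed on eggs laid during 24 h by females on broad bean leaves. Culture at 26±2° C, 70–80% RH, 16 h photoperiod; non-hatched eggs scored as dead when blank control hatched; three repeats.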

[4] = 48 h, concentration 2.5 mg/L, read-out: nymph-killing activity
[5] = concentration 5 mg/L, spray, non-incubated eggs counted as dead

SMILES: CCn1nc(C)c(C)c1/C(OC(C)OC(=O)CSC)=C(\C#N)c1ccc(C(C)(C)C)cc1 (stereo not drawn) [Compound 410]
- pest or weed control at 2.5 µg/mL [1, 4]: ≥ 95%
- pest or weed control at 2.5 µg/mL ([2]; concentration 2.5 mg/L): ≥ 90%
- pest or weed control at 5 µg/mL [3, 5]: ≥ 90%

SMILES: CCn1nc(C)c(C)c1/C(OCOC(=O)c1ccccc1)=C(\C#N)c1ccc(C(C)(C)C)cc1 [Compound 389]
- pest or weed control at 2.5 µg/mL [1, 4]: ≥ 95%
- pest or weed control at 2.5 µg/mL ([2]; concentration 2.5 mg/L): ≥ 90%
- pest or weed control at 5 µg/mL [3, 5]: ≥ 90%

SMILES: CCn1nc(C)c(C)c1/C(OCOC(=O)C1CCCCC1)=C(\C#N)c1ccc(C(C)(C)C)cc1 [Compound 386]
- pest or weed control at 2.5 µg/mL [1, 4]: ≥ 95%
- pest or weed control at 2.5 µg/mL ([2]; concentration 2.5 mg/L): ≥ 90%
- pest or weed control at 5 µg/mL [3, 5]: ≥ 90%

SMILES: Cc1cc(/C(OC(C)OC(=O)OCCC(C)C)=C(\C#N)c2ccc(C(C)(C)C)cc2)n(C)n1 (stereo not drawn) [Compound 490]
- pest or weed control at 2.5 µg/mL [1, 4]: ≥ 95%
- pest or weed control at 2.5 µg/mL ([2]; concentration 2.5 mg/L): ≥ 90%
- pest or weed control at 5 µg/mL [3, 5]: ≥ 90%

SMILES: CCC(=O)OCO/C(=C(/C#N)c1ccc(C(C)(C)C)cc1)c1c(C)c(C)nn1C [Compound 152]
- pest or weed control at 2.5 µg/mL [1, 4]: ≥ 95%
- pest or weed control at 2.5 µg/mL ([2]; concentration 2.5 mg/L): ≥ 90%
- pest or weed control at 5 µg/mL [3, 5]: ≥ 90%

SMILES: CCC(C)(C)C(=O)OC(C)O/C(=C(/C#N)c1ccc(C(C)(C)C)cc1)c1cc(C)nn1C (stereo not drawn) [Compound 41]
- pest or weed control at 2.5 µg/mL [1, 4]: ≥ 95%
- pest or weed control at 2.5 µg/mL ([2]; concentration 2.5 mg/L): ≥ 90%
- pest or weed control at 5 µg/mL [3, 5]: ≥ 90%

SMILES: CCn1nc(C)c(C)c1/C(OCOC(C)=O)=C(\C#N)c1ccc(C(C)(C)C)cc1 [Compound 376]
- pest or weed control at 2.5 µg/mL [1, 4]: ≥ 95%
- pest or weed control at 2.5 µg/mL ([2]; concentration 2.5 mg/L): ≥ 90%
- pest or weed control at 5 µg/mL [3, 5]: ≥ 90%

SMILES: CCn1nc(C)cc1/C(OC(C)OC(=O)CSC)=C(\C#N)c1ccc(C(C)(C)C)cc1 (stereo not drawn) [Compound 260]
- pest or weed control at 2.5 µg/mL [1, 4]: ≥ 95%
- pest or weed control at 2.5 µg/mL ([2]; concentration 2.5 mg/L): ≥ 90%
- pest or weed control at 5 µg/mL [3, 5]: ≥ 90%

SMILES: C=CC(=O)OCO/C(=C(/C#N)c1ccc(C(C)(C)C)cc1)c1c(Cl)c(C)nn1CC [Compound 317]
- pest or weed control at 2.5 µg/mL [1, 4]: ≥ 95%
- pest or weed control at 2.5 µg/mL ([2]; concentration 2.5 mg/L): ≥ 90%
- pest or weed control at 5 µg/mL [3, 5]: ≥ 90%

SMILES: CCn1nc(C)cc1/C(OCOC(=O)OCC(=O)OC)=C(\C#N)c1ccc(C(C)(C)C)cc1 [Compound 573]
- pest or weed control at 2.5 µg/mL [1, 4]: ≥ 95%
- pest or weed control at 2.5 µg/mL ([2]; concentration 2.5 mg/L): ≥ 90%
- pest or weed control at 5 µg/mL [3, 5]: ≥ 90%

SMILES: CSCCOC(=O)OCO/C(=C(/C#N)c1ccc(C(C)(C)C)cc1)c1cc(C)nn1C [Compound 471]
- pest or weed control at 2.5 µg/mL [1, 4]: ≥ 95%
- pest or weed control at 2.5 µg/mL ([2]; concentration 2.5 mg/L): ≥ 90%
- pest or weed control at 5 µg/mL [3, 5]: ≥ 90%

SMILES: CCn1nc(C)c(Cl)c1/C(OC(C)OC(=O)CF)=C(\C#N)c1ccc(C(C)(C)C)cc1 (stereo not drawn) [Compound 337]
- pest or weed control at 2.5 µg/mL ([1]; 48 h, read-out: nymph-killing activity): ≥ 95%
- pest or weed control at 2.5 µg/mL [2]: ≥ 90%
- pest or weed control at 5 µg/mL [3]: ≥ 90%

SMILES: C=CCOC(=O)OC(C)O/C(=C(/C#N)c1ccc(C(C)(C)C)cc1)c1cc(C)nn1CC (stereo not drawn) [Compound 602]
- pest or weed control at 2 µg/mL ([1]; 48 h, concentration 2 mg/L, read-out: nymph-killing activity): ≥ 90%
- pest or weed control at 2.5 µg/mL [1, 4]: ≥ 95%
- pest or weed control at 1.25 µg/mL ([2]; concentration 1.25 mg/L): ≥ 90%
- pest or weed control at 2.5 µg/mL ([2]; concentration 2.5 mg/L): ≥ 90%
- pest or weed control at 2 µg/mL ([3]; concentration 2 mg/L, spray): ≥ 90%
- pest or weed control at 5 µg/mL [3, 5]: ≥ 90%

SMILES: C=CC(=O)OC(C)O/C(=C(/C#N)c1ccc(C(C)(C)C)cc1)c1c(C)c(C)nn1CC (stereo not drawn) [Compound 417]
- pest or weed control at 2.5 µg/mL [1, 4]: ≥ 95%
- pest or weed control at 2.5 µg/mL ([2]; concentration 2.5 mg/L): ≥ 90%
- pest or weed control at 5 µg/mL [3, 5]: ≥ 90%

SMILES: COCC(=O)OC(C)O/C(=C(/C#N)c1ccc(C(C)(C)C)cc1)c1c(Cl)c(C)nn1C (stereo not drawn) [Compound 108]
- pest or weed control at 2.5 µg/mL [1, 4]: ≥ 95%
- pest or weed control at 2.5 µg/mL ([2]; concentration 2.5 mg/L): ≥ 90%
- pest or weed control at 5 µg/mL [3, 5]: ≥ 90%

SMILES: COCCOC(=O)OCO/C(=C(/C#N)c1ccc(C(C)(C)C)cc1)c1cc(C)nn1C [Compound 468]
- pest or weed control at 2.5 µg/mL [1, 4]: ≥ 95%
- pest or weed control at 2.5 µg/mL ([2]; concentration 2.5 mg/L): ≥ 90%
- pest or weed control at 5 µg/mL [3, 5]: ≥ 90%

SMILES: Cc1nn(C)c(/C(OC(C)OC(=O)Cc2ccccc2)=C(\C#N)c2ccc(C(C)(C)C)cc2)c1C (stereo not drawn) [Compound 190]
- pest or weed control at 2.5 µg/mL ([1]; concentration 2.5 mg/L, 48 h, read-out: nymph-killing activity): ≥ 95%
- pest or weed control at 2.5 µg/mL ([2]; concentration 2.5 mg/L): ≥ 90%
- pest or weed control at 5 µg/mL [3, 5]: ≥ 90%

SMILES: CC(=O)OC(C)O/C(=C(/C#N)c1ccc(C(C)(C)C)cc1)c1c(C)c(C)nn1C (stereo not drawn) [Compound 176]
- pest or weed control at 2.5 µg/mL [1, 4]: ≥ 95%
- pest or weed control at 2.5 µg/mL ([2]; concentration 2.5 mg/L): ≥ 90%
- pest or weed control at 5 µg/mL [3, 5]: ≥ 90%
